{"source": "patent US11505574B2", "about": "“Modulation of P53 for the treatment of cancer” (THE REGENTS OF THE UNIVERSITY OF CALIFORNIA, priority 2016, dated 2022)", "key": {"[1]": {"molecular_target": "T1, eIF4E association with p53 mRNA (Homo sapiens, UniProt P06730)", "T1 construct": "endogenous in cells; host or cells: RKO cells", "T1 sequence (P06730 2-217 limits assumed)": "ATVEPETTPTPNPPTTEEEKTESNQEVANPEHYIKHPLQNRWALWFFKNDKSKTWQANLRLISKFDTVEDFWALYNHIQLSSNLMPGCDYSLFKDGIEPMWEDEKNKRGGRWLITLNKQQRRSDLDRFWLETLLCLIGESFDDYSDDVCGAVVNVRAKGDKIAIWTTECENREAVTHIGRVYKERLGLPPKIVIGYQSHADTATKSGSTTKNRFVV", "experiment": "RNA-ChIP assay in RKO cells", "assay_type": "cell-based", "details": "1.5 μM, 2 hours, versus Pen-Ctrl (FIG. 33A)", "experimental": "RNA-ChIP assays were performed to examine how peptides of the present invention affect eIF4E association with p53 mRNA (FIG. 33). For the experiments shown in FIG. 33A, 4 10 cm plates were seeded with 2×10^6 RKO cells the night before. The next morning 2 plates were treated with 1.5 μM Pen-Ctrl (SEQ ID NO:10) and 2 plates were treated with 1.5 μM Pen-Pep8 (SEQ ID NO:50) for 2 hours. RKO cells were harvested in 1 mL per plate polysome lysis buffer, then centrifuged at 16,000×G for 15 minutes in a microcentrifuge at 4° C. The supernatant was pooled from all aliquots and transferred to a 15 ml tube. Equilibration was performed with 50% protein A-agarose slurry in polysome lysis buffer by washing twice with 0.5 mL of polysome lysis buffer and then restoring the original volume with lysis buffer. 3×200 μL tubes of agarose. For preclearing, one aliquot of equilibrated protein A-agarose beads was added to the lysate (50 μL of 50% agarose per 1 mL lysate) and incubated with rotation at 4° C. for 1 hour. Lysate was divided into microcentrifuge tubes and centrifuged briefly for 30 seconds to collect beads. Supernatant was pooled and transferred to a new 15 mL tube. After repeating the preclearing and bead collection steps, lysate was divided into 1 mL aliquots (i.e., 2×1 mL Pen-Ctrl and 2×1 mL Pen-Pep8). […]"}, "RKO tumor xenograft": {"system": "RKO tumor xenograft", "experiment": "RKO tumor xenograft model in nude mice", "assay_type": "in vivo", "experimental": "6-week-old female nude mice were used for the xenograft study (FIG. 35A). 1×10^6 RKO cells in a 1:1 mixture of matrigel:DMEM (serum-free) were injected into the right flank of the nude mice. After tumors had grown to a size of about 100 mm^3, treatment with either Pen-Ctrl or Pen-Pep8 (5 μM in 50 μL sterile PBS) was administered by intratumoral injection every 2 days for 2 weeks. After treatment, the animals were sacrificed and tumors were excised, measured, and weighed followed by being flash frozen (n=6 for each group). Xenograft volume over the course of treatment and final tumor weight after the animals were sacrificed are shown in FIGS. 35B and 35C, respectively. Furthermore, pieces of the frozen xenografts were cut using a sterile scalpel and then the tumor tissue was lysed and lysate was run on a 10% SDS-PAGE gel followed by Western blotting for Puma, p53, and actin."}}}
{"sequence": "RQIKIWFQNRRMKWKKYPYAASPA [Pen-Pep8, Penetratin fused to Pep8]", "values": [{"measurement": "eIF4E association with p53 mRNA (RNA-ChIP)", "setting": "[1]", "value": "increased eIF4E association with p53 mRNA"}, {"measurement": "RKO tumor cell growth in a xenograft model (tumor volume, tumor weight)", "setting": "RKO tumor xenograft; female nude mice, 5 μM in 50 μL PBS, intratumoral injection every 2 days for 2 weeks, versus Pen-Ctrl (FIGS. 35A-35C)", "value": "inhibited RKO tumor cell growth"}, {"measurement": "p53 and Puma protein expression in xenograft tumors (Western blot)", "setting": "RKO tumor xenograft; lysate from RKO xenograft tumors after treatment, versus Pen-Ctrl (FIG. 35D)", "value": "increased p53 protein expression, as well as its target, Puma"}]}
